Calls of active or inactive are those of the source. No cut-off for these calls is given here.
Assays:
[1] = tested on: 3T3-L1; assay: Anti-adipogenic activity in mouse 3T3L1 preadipocytes assessed as reduction in lipid accumulation at 20 uM by Oil Red O absorbance assay; assay type: functional, cell-based
[2] = species: Mus musculus; assay: Inhibition of PPARgamma/CEBPalpha-mediated increase in FAS mRNA levels in mouse 3T3L1 preadipocytes at 20 uM after 6 days by RT-PCR analysis; assay type: cell-based
[3] = tested on: 3T3-L1; assay: Anti-adipogenic activity in mouse 3T3L1 cells assessed as reduction in lipid accumulation at 20 uM incubated for 4 to 6 days by Oil Red O absorbance method; assay type: functional, cell-based
[4] = biological target: T1, Peroxisome proliferator-activated receptor gamma (Mus musculus) (UniProt P37238); assay: Inhibition of PPARgamma mRNA levels in mouse 3T3L1 preadipocytes at 20 uM after 6 days by RT-PCR analysis; assay type: cell-based
T1 sequence (whole entry): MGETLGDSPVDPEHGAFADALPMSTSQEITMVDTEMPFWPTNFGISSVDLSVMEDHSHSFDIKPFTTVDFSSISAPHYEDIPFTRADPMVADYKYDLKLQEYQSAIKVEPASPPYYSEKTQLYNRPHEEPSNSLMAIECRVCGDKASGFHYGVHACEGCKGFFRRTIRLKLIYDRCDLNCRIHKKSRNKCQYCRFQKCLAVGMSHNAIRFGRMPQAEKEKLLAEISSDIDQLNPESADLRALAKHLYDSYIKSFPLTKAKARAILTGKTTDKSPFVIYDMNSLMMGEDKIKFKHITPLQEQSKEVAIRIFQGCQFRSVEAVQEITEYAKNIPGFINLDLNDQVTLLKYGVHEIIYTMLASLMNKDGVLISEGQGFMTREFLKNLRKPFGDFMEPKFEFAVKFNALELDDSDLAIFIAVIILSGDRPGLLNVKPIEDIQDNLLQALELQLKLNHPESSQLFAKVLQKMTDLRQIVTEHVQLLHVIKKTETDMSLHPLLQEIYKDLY

[5] = tested on: 3T3-L1; assay: Cell cycle arrest in mouse 3T3L1 cells assessed as accumulation at S phase at 10 to 20 uM after 16 hrs by propidium iodide-staining based flow cytometry; assay type: functional
[6] = tested on: 3T3-L1; assay: Anti-adipogenic activity in mouse 3T3L1 cells assessed as reduction in lipid accumulation at 20 uM incubated for 2 to 4 days by Oil Red O absorbance method; assay type: functional, cell-based
[7] = tested on: 3T3-L1; assay: Cell cycle arrest in mouse 3T3L1 cells assessed as accumulation at S phase at 10 uM after 24 hrs by propidium iodide-staining based flow cytometry (reference value: 22%); assay type: functional
[8] = biological target: CCAAT/enhancer-binding protein alpha (Mus musculus) (UniProt P53566); assay: Inhibition of C/EBPalpha protein expression in mouse 3T3L1 preadipocytes at 20 uM up to 6 days by Western blot analysis; assay type: cell-based
Chain of CCAAT/enhancer-binding protein alpha (Mus musculus) (P53566 whole entry): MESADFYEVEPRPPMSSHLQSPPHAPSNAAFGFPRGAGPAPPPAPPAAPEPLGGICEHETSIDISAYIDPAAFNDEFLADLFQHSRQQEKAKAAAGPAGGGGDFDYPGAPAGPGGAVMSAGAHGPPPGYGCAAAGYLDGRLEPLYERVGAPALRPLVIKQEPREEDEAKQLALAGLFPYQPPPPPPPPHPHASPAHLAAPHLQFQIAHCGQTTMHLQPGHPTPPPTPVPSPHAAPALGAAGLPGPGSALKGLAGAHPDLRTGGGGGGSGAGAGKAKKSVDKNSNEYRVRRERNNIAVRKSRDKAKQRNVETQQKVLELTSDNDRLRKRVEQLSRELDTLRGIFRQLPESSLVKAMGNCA

[9] = species: Mus musculus; assay: Inhibition of PPARgamma/CEBPalpha-mediated increase in aP2 protein expression in mouse 3T3L1 preadipocytes at 20 uM up to 6 days by Western blot analysis; assay type: cell-based
[10] = species: Mus musculus; assay: Inhibition of PPARgamma/CEBPalpha-mediated increase in aP2 mRNA levels in mouse 3T3L1 preadipocytes at 20 uM after 6 days by RT-PCR analysis; assay type: cell-based
[11] = tested on: 3T3-L1; assay: Anti-adipogenic activity in mouse 3T3L1 cells assessed as reduction in lipid accumulation at 20 uM incubated for 2 to 4 days by Oil Red O staining based microscopic method; assay type: functional, cell-based
[12] = tested on: 3T3-L1; assay: Anti-adipogenic activity in mouse 3T3L1 cells assessed as reduction in lipid accumulation at 20 uM incubated up to 6 days by Oil Red O staining based microscopic method; assay type: functional, cell-based
[13] = tested on: 3T3-L1; assay: Anti-adipogenic activity in mouse 3T3L1 preadipocytes in differentiation media assessed as reduction in lipid accumulation by Oil Red O staining microscopic method; assay type: functional, cell-based
[14] = tested on: 3T3-L1; assay: Cell cycle arrest in mouse 3T3L1 cells assessed as accumulation at S phase at 20 uM after 24 hrs by propidium iodide-staining based flow cytometry (reference value: 22%); assay type: functional
[15] = tested on: 3T3-L1; assay: Anti-adipogenic activity in mouse 3T3L1 cells assessed as reduction in lipid accumulation at 20 uM incubated for 2 to 6 days by Oil Red O absorbance method; assay type: functional, cell-based
[16] = biological target: T1, Peroxisome proliferator-activated receptor gamma (Mus musculus); assay: Inhibition of PPARgamma protein expression in mouse 3T3L1 preadipocytes at 20 uM up to 6 days by Western blot analysis; assay type: cell-based
[17] = species: Mus musculus; assay: Inhibition of PPARgamma/CEBPalpha-mediated increase in FAS protein expression in mouse 3T3L1 preadipocytes at 20 uM up to 6 days by Western blot analysis; assay type: cell-based
[18] = tested on: 3T3-L1; assay: Anti-adipogenic activity in mouse 3T3L1 preadipocytes in differentiation medium assessed as reduction in lipid accumulation at 20 uM by Oil Red O absorbance assay relative to control; assay type: functional; design: scale not given: the % may be the effect or the level left
[19] = biological target: CCAAT/enhancer-binding protein alpha (Mus musculus) (UniProt P53566); assay: Inhibition of C/EBPalpha mRNA levels in mouse 3T3L1 preadipocytes at 20 uM after 6 days by RT-PCR analysis; assay type: cell-based
[20] = tested on: 3T3-L1; assay: Anti-adipogenic activity in mouse 3T3L1 cells assessed as reduction in lipid accumulation at 20 uM incubated up to 6 days by Oil Red O absorbance assay; assay type: functional, cell-based
[21] = tested on: 3T3-L1; assay: Anti-adipogenic activity in mouse 3T3L1 cells assessed as reduction in lipid accumulation at 20 uM incubated for 2 to 6 days by Oil Red O staining based microscopic method; assay type: functional, cell-based
[22] = tested on: 3T3-L1; assay: Anti-adipogenic activity in mouse 3T3L1 cells assessed as reduction in lipid accumulation at 20 uM incubated for 4 to 6 days by Oil Red O staining based microscopic method; assay type: functional, cell-based
[23] = tested on: 3T3-L1; assay: Anti-adipogenic activity in mouse 3T3L1 preadipocytes assessed as reduction in MDI induced-lipid accumulation at 10 uM after 20 mins by Oil Red O staining-based assay; assay type: functional, cell-based
[24] = tested on: 3T3-L1; assay: Cytotoxicity against mouse 3T3L1 cells; assay type: cell-based

COc1ccc(C(=O)OCC(O)COc2ccc(/C=C3\SC(=O)NC3=O)cc2)c(OC)c1 (centres undefined)
Activity [1]: inactive

O=C1S/C(=C\c2ccc(OCC(O)CNCc3cccnc3)cc2)C(=O)N1Cc1ccccc1Br (centres undefined)
Activity [1]: inactive

O=C1S/C(=C\c2ccc(OCC(O)CNCc3ccccn3)cc2)C(=O)N1Cc1ccccc1 (centres undefined)
inhibition [2]: Active | Activity [3]: Active | inhibition [4]: Active | Activity [5]: inactive | Activity [6]: Active | Activity [7]: 37% | inhibition [8]: Active | inhibition [9]: Active | inhibition [10]: Active | Activity [11]: Active | Activity [12]: Active | Activity [13]: Dose-dependent effect | Activity [14]: 36% | Activity [15]: Active | inhibition [16]: Active | inhibition [17]: Active | Activity [18]: >50% | inhibition [19]: Active | Activity [20]: Active | Activity [21]: Active | Activity [1]: Active | Activity [22]: Active | Activity [23]: Active

O=C(Cc1ccc(Cl)cc1)OCC(O)COc1ccc(/C=C2\SC(=O)NC2=O)cc1 (centres undefined)
Activity [1]: inactive

CC(NCC(O)COc1ccc(/C=C2\SC(=O)N(Cc3ccccc3Br)C2=O)cc1)c1ccccc1 (centres undefined)
Activity [24]: Toxic

O=C1NC(=O)/C(=C/c2ccc(OCC(O)COC(=O)c3ccc(Cl)nc3)cc2)S1 (centres undefined)
Activity [1]: inactive

O=C1S/C(=C\c2ccc(OCC(O)CNCc3ccccn3)cc2)C(=O)N1Cc1ccccc1Br (centres undefined)
Activity [1]: Active

CC(NCC(O)COc1ccc(/C=C2\SC(=O)N(Cc3ccccc3)C2=O)cc1)c1ccccc1 (centres undefined)
Activity [24]: Toxic

O=C1S/C(=C\c2ccc(OCC(O)CNCc3ccccn3)cc2)C(=O)N1Cc1ccc(F)cc1 (centres undefined)
Activity [24]: Toxic

O=C1S/C(=C\c2ccc(OCC(O)CNCc3cccnc3)cc2)C(=O)N1Cc1ccccc1 (centres undefined)
Activity [1]: inactive

O=C1S/C(=C\c2ccc(OCC(O)CNCc3cccnc3)cc2)C(=O)N1Cc1ccc(F)cc1 (centres undefined)
Activity [1]: inactive

O=C1NC(=O)/C(=C/c2ccc(OCC(O)COC(=O)c3cccnc3)cc2)S1 (centres undefined)
Activity [1]: inactive

Reference: ChEMBL document CHEMBL4138234, “Aegeline inspired synthesis of novel amino alcohol and thiazolidinedione hybrids with antiadipogenic activity in 3T3-L1 cells” (Eur J Med Chem, 2018)
